Legend:
U-87MG cells = assay: Cancer cell death verification (MTT cell viability); type: cell-based
Procedure: 3×10^3 Brain cancer (U-87MG), lung cancer (H1975), pancreatic cancer (Aspc-1), liver cancer (Hep G2), breast cancer (MDA-MB-231), colon cancer (HCT116), kidney cancer (Caki-1), gastric cancer (SNU-1) and ovarian cancer (OVCAR-3) cells were cultured in a 96-well plate under conditions of 37° C. and 5% CO2 for 24 hours, and then each cancer cell was treated with ADP-ribose at each concentration. After culturing for 24 hours under conditions of 37° C. and 5% CO2 again, 10 μl of 3-(4,5-dimethylthiazol-2-yl)-2,5-diphenyltetrazolium bromide reagent was added to each well and reacted for 1 hour. After the reaction was completed, the reagent was removed, 200 μl of dimethyl sulfoxide was added to each well, and the absorbance was measured to determine the concentration of half-lethality and maximum lethality compared to untreated cells.
3×10^3 U-87MG cells were cultured in a 96-well plate for 24 hours under conditions of 37° C. and 5% CO2, treated with ADP-ribose at final concentrations of 0.125, 0.25, 0.5, 1, 2, 4, 8, 16, and 32 μM, respectively, and cultured again for 24 hours under conditions of 37° C. and 5% CO2. Then, 10 μl of 3-(4,5-dimethylthiazol-2-yl)-2,5-diphenyltetrazolium bromide reagent was added to each well and reacted for 1 hour. After the reaction was completed, the reagent was removed, 200 μl of dimethyl sulfoxide was added to each well, and the absorbance was measured to confirm cell viability.

AsPC-1 cells = assay: Transwell metastasis and invasion ability of cancer cells; type: cell-based; conditions: AsPC-1, 16 μM ADP-ribose
Procedure: (§1) Metastasis and invasion ability of cancer cells were analyzed by using a transwell having polycarbonate membrane filters with 8.0 μm pore size. The transwell was put into a 24-well plate. In each well, pancreatic cancer (Aspc-1) and breast cancer (MDA-MB-231) cells were seeded on the upper surface of the insert at a density of 3.5×10^5 cells per well, divided into the untreated group and ADP-ribose-treated groups, and cultured under conditions of 37° C. and 5% CO2 for 24 hours. After culturing, the transwell was carefully washed with sterile water and then placed in 100% methanol to fix the attached cells. After fixation, the cells were stained with hematoxylin and an eosin reagent to observe the cells, and the ratio of cells that permeated the upper surface of the insert and metastasized and invaded the lower surface, compared to the untreated group, was obtained.
(§2) Analysis was performed using a transwell having polycarbonate membrane filters with 8.0 μm pore size. […] After culturing, the transwell was carefully washed with sterile water and then placed in 100% methanol to fix the attached cells. After fixation, the cells were stained with hematoxylin and an eosin reagent to observe the cells.

MDA-MB-231 cells = assay: as above; type: cell-based; conditions: MDA-MB-231, 32 μM ADP-ribose
Procedure: as §1, §2

[1] = tested on: Breast cancer (MDA-MB-231) cells; assay: Cell death by combination treatment with anti-cancer drug (MTT); type: cell-based; conditions: Homo sapiens, MDA-MB-231, 24 h
Procedure: 3×10^3 Brain cancer (U-87MG), lung cancer (H1975), pancreatic cancer (Aspc-1), liver cancer (Hep G2), breast cancer (MDA-MB-231), and colon cancer (HCT116) cells were cultured in a 96-well plate for 24 hours under conditions of 37° C. and 5% Ca2, respectively. […] After the treatment was terminated, the cells were cultured for 24 hours under conditions of 37° C. and 5% CO2 again, 10 μl of 3-(4,5-dimethylthiazol-2-yl)-2,5-diphenyltetrazolium bromide reagent was added to each well and reacted for 1 hour. After the reaction was completed, the reagent was removed, 200 μl of dimethyl sulfoxide was added to each well, and the absorbance was measured to compare the degree of cell death.
Then, 10 μl of 3-(4,5-dimethylthiazol-2-yl)-2,5-diphenyltetrazolium bromide reagent was added to each well and reacted for 1 hour. After the reaction was completed, the reagent was removed, 200 μl of dimethyl sulfoxide was added to each well, and the absorbance was measured to confirm cell viability.

[2] = tested on: Brain cancer (U-87MG) cells; assay: Xenograft model, combination with anti-cancer drug, tumor volume; type: in vivo, BALB/c nude mice; conditions: U-87MG xenograft
Procedure: Brain (U-87MG), lung (H1975), pancreatic (AsPC-1), or liver (Hep G2) cells (1×10^7 cells) were inoculated into 5-week-old BALB/c nude mice on the back flank, respectively. Then, when tumors were grown to a volume of approximately 150 mm^3, the mice were divided into the control group (control), an anti-cancer drug alone treatment group, and a combination treatment group. […] The tumor size was measured every 6 days using a digital caliper, and the results of changes in tumor volume were compared by the group.
Brain cancer (U-87MG) cells (1×10^7) were inoculated into 5-week-old BALB/c nude mice on the back flank, and the mice were divided into three groups: the control group (Control), single intraperitoneal administration of 25 mg/kg of Avastin (ingredient name: bevacizumab), and combination administration of Avastin+10 mg/kg of ADP-ribose. When the tumors were grown to a volume of approximately 150 mm^3, Avastin was administered intraperitoneally twice a week, and ADP-ribose at 10 mg/kg was injected subcutaneously 3 times a week. The tumor size was measured using a digital caliper, and the results of changes in tumor volume were compared by the group.

Caki-1 cells = assay: Cell death by combination treatment of ADP-ribose and radiation (MTT); type: cell-based; conditions: Caki-1, 16 μM ADP-ribose in combination with 2 Gy radiation, 24 hours, P<0.001; 2 Gy alone about 94.7%
Procedure: 3×10^3 Caki-1 cells were cultured in a 96-well plate for 24 hours under conditions of 37° C. and 5% CO2, treated with 16 μM of ADP-ribose and 2 or 5 Gy dose of radiation individually or in combination, and cultured for 24 hours under conditions of 37° C. and 5% CO2 again. Then, 10 μl of 3-(4,5-dimethylthiazol-2-yl)-2,5-diphenyltetrazolium bromide reagent was added to each well and reacted for 1 hour. After the reaction was completed, the reagent was removed, 200 μl of dimethyl sulfoxide was added to each well, and the absorbance was measured to confirm cell viability.

[3] = tested on: Brain cancer (U-87MG) cells; assay: Xenograft model, combination with radiation, tumor volume; type: in vivo, BALB/c nude mice; conditions: U-87MG xenograft
Procedure: (§3) Brain cancer (U-87MG), pancreatic cancer (AsPC-1), breast cancer (MDA-MB-231), or kidney cancer (Caki-1) cells (1×10^7 cells) were inoculated into 5-week-old BALB/c nude mice on the back flank, respectively. Then, when tumors were grown to a volume of approximately 150 mm^3, the mice were divided into three groups: the control group (Control), 2 Gy dose of radiation alone, and a combination administration of 2 Gy dose of radiation+10 mg/kg of ADP-ribose (subcutaneous administration, 3 times a week). The irradiation was performed with an X-Rad 320 irradiator (Precision X-ray, North Branford, CT, USA), wherein the mice were placed by maintaining an appropriate distance from the radiation source for irradiation with a predetermined radiation dose. A lead shield was used to protect the body parts or organs from exposure to radiation, other than the cancerous part of the mouse. The irradiation was performed with a total of 2 Gy of radiation fractionated into two doses of 1 Gy each (for 2 days) at a dose rate of 300 kVp and 150 cGy/min using an X-ray beam filter composed of 12.5 mA and 2.0 mm Al. The tumor size was measured every 6 days using a digital caliper, and the results of changes in tumor volume were compared by the group.
(§4) Brain cancer (U-87MG) cells (1×10^7) were inoculated into 5-week-old BALB/c nude mice on the back flank, and the mice were divided into three groups: the control group, 2 Gy dose of radiation alone, and combination administration of 2 Gy dose radiation+10 mg/kg of ADP-ribose. When the tumors were grown to a volume of approximately 150 mm^3, 2 Gy dose of radiation was irradiated twice at 1 Gy each, and 10 mg/kg of ADP-ribose was injected subcutaneously 3 times a week. The tumor size was measured using a digital caliper, and the results of changes in tumor volume were compared by the group.

[4] = tested on: Pancreatic cancer (AsPC-1) cells; assay: as above; type: in vivo, BALB/c nude mice; conditions: AsPC-1 xenograft
Procedure: as §3
as §4, with “Pancreatic” for “Brain”, “(AsPC-1)” for “(U-87MG)”, “group (Control),” for “group,”

[5] = ADP-ribose 10 mg/kg s.c. in combination with Avastin 25 mg/kg, P<0.001
[6] = ADP-ribose 10 mg/kg s.c. + 2 Gy radiation, P<0.001

SMILES: Nc1ncnc2c1ncn2[C@@H]1O[C@H](COP(=O)(O)OP(=O)(O)OC[C@H]2O[C@@H](O)C(O)C2O)C(O)C1O (stereo partly drawn) [ADP-ribose, adenosine diphosphate ribose]
- IC50 (U-87MG cells; Homo sapiens, U-87 MG, 24 h, read-out: half-lethal dose (concentration at which about half of the cells were killed)): ~8 µM
- maximum lethal dose (concentration at which almost all cells were killed) (U-87MG cells; U-87MG, 24 hours, MTT): 32 µM
- cancer cell growth under a microscope (U-87MG cells; U-87MG, ADP-ribose treated vs control, FIG. 2A): inhibited from growing and killed
- invasion and metastasis from upper to lower part of the transwell (photomicrograph) (AsPC-1 cells; 24 hours, FIG. 10A): significantly inhibited
- metastasis and invasion ability, quantitatively measured, compared to the control group (AsPC-1 cells; P<0.001, FIG. 10B): significantly reduced
- invasion and metastasis from upper to lower part of the transwell (photomicrograph) (MDA-MB-231 cells; 24 hours, FIG. 11A): significantly inhibited
- metastasis and invasion ability, quantitatively measured, compared to the control group (MDA-MB-231 cells; P<0.001, FIG. 11B): significantly reduced
- viability at 3.2 µM [1]: ~20%
- reduction of tumor volume compared to the control group [2, 5]: about 87%
- reduction of tumor volume compared to the group treated with Avastin alone [2, 5]: about 79%
- final tumor volume ([2]; ADP-ribose 10 mg/kg subcutaneous 3 times a week in combination with Avastin 25 mg/kg, control about 2527.1): about 334.5 mm^3
- survival rate of cancer cells (Caki-1 cells): about 22.7%
- reduction of tumor volume compared to the control group [3, 6]: about 71.5%
- reduction of tumor volume compared to the group treated with 2 Gy dose of radiation alone [3, 6]: about 50.7%
- final tumor volume ([3]; ADP-ribose 10 mg/kg subcutaneous 3 times a week + 2 Gy radiation, control about 2545.2, 2 Gy alone about 1472.1): about 725.2 mm^3
- reduction of tumor volume compared to the control group [4, 6]: about 69.1%
- reduction of tumor volume compared to the group treated with 2 Gy dose of radiation alone [4, 6]: about 57.3%
- final tumor volume ([4]; ADP-ribose 10 mg/kg subcutaneous 3 times a week + 2 Gy radiation, control about 2384.3, 2 Gy alone about 1725.5): about 736.2 mm^3
